Source: patent publication US8288410B2, “3-substituted quinolinium and 7H-indolo[2,3-c]quinolinium salts as new antiinfectives” (Florida Agricultural and Mechanical University, priority 2008, dated 2012)

Legend:
[1] = test system: Aspergillus fumigatus ATCC 90906; test: Antifungal susceptibility testing, Aspergillus fumigatus; format: cell-based; conditions: Aspergillus fumigatus
Protocol: (§1) Using standard susceptibility tests, the compounds of the invention were determined to be active against MRSA, C. neoformans and several other bacteria, fungi and protozoa. More specifically, the antibacterial and antifungal testing was carried out in the following manner. Cryptococcus neoformans ATCC 90113 and MRSA were obtained from the American Type Culture Collection (Manassas. Va.). Several others including Candida albicans ATTC 90028, Aspergillus fumigatus ATCC 90906 and Mycobacterium intracellulare (M. intracellulare) ATCC 23086 were also procured. Susceptibility testing was performed using a modified version of the National Committee for Clinical Laboratory Standards method. M. intracellulare was tested using a modified method of Franzblau, et al., J. Clin. Microbiol., 1998, 36, 362-366. DMSO solutions of samples were serially diluted in saline, and transferred in duplicate to 96 well microplates. Microbial suspensions were diluted in the broth to afford desired colony forming units/mL according to the 0.5 McFarland Standard [C. Albicans: either Saboraud Dextrose broth (SDB) or RPMI 1640, C. neoformans: SDB, A fumigatus: either YM broth (for MICS) or RPMI-1640+5% Alamar Blue.] After adding microbial cultures to the sampled afforded a final volume of 200 μL and final test concentration starting with 20 μg/mL, plates were read prior to and after final incubation using either fluorescence at 544ex/590em (M intracellulare, A. fumigatus) using the Polarstar galaxy reader (Biotek Instruments, Vermont). Growth (saline only), solvent and blank (media only) controls were included on each test plate. Drug controls [Ciprofloxacin (ICN Biomedicals, Ohio) for bacteria and Amphotericin B (ICN Biomedicals, Ohio) for fungi] were included in each assay. Percent growth was calculated and plotted versus test concentration to afford IC50 (sample concentration that affords 50% inhibition or growth of the organism). The minimum inhibitory concentration (MIC) was determined by visually inspecting the plate, and is defined as the lowest test concentration that allows no detectable growth (for Almar Blue assays, no color change from blue to pink).

[2] = test system: Candida albicans ATTC 90028; test: Antifungal susceptibility testing, Candida albicans; format: cell-based
Protocol: as §1

MRSA = test: Antibacterial susceptibility testing, MRSA; format: cell-based, methicillin resistant Staphylococcus aureus; conditions: for MRS IC50 / MRS MFC / MRS MIC: Table 1
Protocol: as §1

[3] = test system: Cryptococcus neoformans ATCC 90113; test: Antifungal susceptibility testing, Cryptococcus neoformans; format: cell-based
Protocol: as §1

SMILES	A fu IC50 ([1]; Table 1)	A fu MFC ([1]; Table 1)	A fu MIC ([1]; Table 1)	Ca IC50 ([2]; Table 1)	Ca MFC ([2]; Table 1)	Ca MIC ([2]; Table 1)	MRS IC50 (MRSA)	MRS MFC (MRSA)	MRS MIC (MRSA)	Cn IC50 ([3]; Table 1)	Cn MFC ([3]; Table 1)	Cn MIC ([3]; Table 1)	further results
[I-].[O-][S+](c1cc2ccccc2[n+](CCCCCc2ccccc2)c1)c1ccccc1C(F)(F)F (stereo not shown) [XYZ-IV-90]	— ((-) = >20 μg/mL)	— ((-) = >20 μg/mL)	— ((-) = >20 μg/mL)	15 µg/mL	— ((-) = >20 μg/mL)	— ((-) = >20 μg/mL)	0.25 µg/mL	10 µg/mL	0.63 µg/mL	5.5 µg/mL	— ((-) = >20 μg/mL)	20 µg/mL	
Clc1ccccc1Sc1cc2ccccc2[n+](CCCCCc2ccccc2)c1.[I-] [XYZ-III-74]	0.70 µg/mL	— ((-) = >20 μg/mL)	2.5 µg/mL	— ((-) = >20 μg/mL)	— ((-) = >20 μg/mL)	— ((-) = >20 μg/mL)	1.0 µg/mL	10 µg/mL	2.5 µg/mL	2.0 µg/mL	20 µg/mL	5.0 µg/mL	
COc1ccc(Nc2cc3ccccc3[n+](CCCCCC3CCCCC3)c2)cc1.[I-] [JRE-3-45-1]													A fu IC50 ([1]; Table 2): — ((-) = >20 μg/mL); Ca IC50 ([2]; Table 2): — ((-) = >20 μg/mL); Ca MFC ([2]; Table 2): — ((-) = >20 μg/mL); Ca MIC ([2]; Table 2): — ((-) = >20 μg/mL); MRSA IC50 (MRSA; Table 2): — ((-) = >20 μg/mL); MRSA MFC (MRSA; Table 2): — ((-) = >20 μg/mL); MRSA MIC (MRSA; Table 2): — ((-) = >20 μg/mL); Cn IC50 ([3]; Table 2): — ((-) = >20 μg/mL); Cn MFC ([3]; Table 2): — ((-) = >20 μg/mL); Cn MIC ([3]; Table 2): — ((-) = >20 μg/mL)
[I-].[O-][S+](c1cc(C(F)(F)F)cc(C(F)(F)F)c1)c1cc2ccccc2[n+](CCCCCc2ccccc2)c1 (stereo not shown) [XYZ-V-13]	— ((-) = >20 μg/mL)	— ((-) = >20 μg/mL)	— ((-) = >20 μg/mL)	10 µg/mL	20 µg/mL	20 µg/mL	0.20 µg/mL	10 µg/mL	0.63 µg/mL	3.0 µg/mL	20 µg/mL	5.0 µg/mL	
COc1ccccc1Sc1cc2ccccc2[n+](CCCCCc2ccccc2)c1.[I-] [XYZ-IV-18]	0.09 µg/mL	10 µg/mL	1.3 µg/mL	3.0 µg/mL	— ((-) = >20 μg/mL)	10 µg/mL	0.25 µg/mL	5.0 µg/mL	0.63 µg/mL	0.85 µg/mL	5.0 µg/mL	2.5 µg/mL	
COc1ccc(Sc2cc3ccccc3[n+](C)c2)cc1.[I-] [XYZ-III-71]	— ((-) = >20 μg/mL)	— ((-) = >20 μg/mL)	— ((-) = >20 μg/mL)	— ((-) = >20 μg/mL)	— ((-) = >20 μg/mL)	— ((-) = >20 μg/mL)	— ((-) = >20 μg/mL)	— ((-) = >20 μg/mL)	— ((-) = >20 μg/mL)	— ((-) = >20 μg/mL)	— ((-) = >20 μg/mL)	— ((-) = >20 μg/mL)	
O=C(c1ccc(Cl)cc1)c1cc2ccccc2[n+](CCCCCc2ccccc2)c1.[I-] [XYZ-V-62]	10 µg/mL	— ((-) = >20 μg/mL)	20 µg/mL	7.0 µg/mL	— ((-) = >20 μg/mL)	10 µg/mL	0.20 µg/mL	— ((-) = >20 μg/mL)	3.1 µg/mL	2.0 µg/mL	10 µg/mL	5.0 µg/mL	
